Read-outs that look alike come from different tables or passages of the source.
[1] = Cohort A: 200mg, cytarabine, Daunorubicin (n=5), Total
[2] = Cohort A: 200mg, cytarabine, Daunorubicin (n=5), grade 1&2
[3] = Cohort A: 200mg, cytarabine, Daunorubicin (n=5), grade 3+
[4] = Cohort B Dose 2: 400mg, Decitabine (n=2), Total
[5] = Cohort B Dose 2: 400mg, Decitabine (n=2), grade 1&2
[6] = Cohort B Dose 2: 400mg, Decitabine (n=2), grade 3+

Question: Which results are given for `C1=C/COCc2cc(ccc2OCCN2CCCC2)Nc2nccc(n2)-c2cccc(c2)COC/1` [Pacritinib, 11-(2-pyrrolidin-1-yl-ethoxy)-14,19-dioxa-5,7,26-triaza-tetracyclo[19.3.1.1(2,6). 1(8,12)]heptacosa-1(25),2(26),3,5,8,10,12(27),16,21,23-decaene]?
Answer: HYPOXIA, patients (%) [1]: 2 (40); LUNG INFECTION, patients (%) [1]: 1 (20); LYMPHOCYTE COUNT DECREASED, patients (%) [1]: 3 (60); MUCOSITIS ORAL, patients (%) [1]: 2 (40); NAUSEA, patients (%) [1]: 3 (60); NEUTROPHIL COUNT DECREASED, patients (%) [1]: 2 (40); PLATELET COUNT DECREASED, patients (%) [1]: 5 (100); PLEURAL EFFUSION, patients (%) [1]: 1 (20); PRURITUS, patients (%) [1]: 4 (80); RASH MACULO-PAPULAR, patients (%) [1]: 2 (40); RASH, patients (%) [1]: 2 (40); RESPIRATORY FAILURE, patients (%) [1]: 2 (40); VOMITING, patients (%) [1]: 0; WHITE BLOOD CELL DECREASED, patients (%) [1]: 4 (80); ACTIVATED PARTIAL THROMBOPLASTIN TIME PROLONGED, patients (%) [2]: 1 (20); ANEMIA, patients (%) [2]: 0; ANOREXIA, patients (%) [2]: 0; CONSTIPATION, patients (%) [2]: 0; DIARRHEA, patients (%) [2]: 3 (60); DYSPNEA, patients (%) [2]: 1 (20); EDEMA LIMBS, patients (%) [2]: 1 (20); ELECTROCARDIOGRAM QT CORRECTED INTERVAL PROLONGED, patients (%) [2]: 4 (80); FATIGUE, patients (%) [2]: 3 (60); FEBRILE NEUTROPENIA, patients (%) [2]: 0; HYPERGLYCEMIA, patients (%) [2]: 1 (20); HYPERTENSION, patients (%) [2]: 1 (20); HYPOALBUMINEMIA, patients (%) [2]: 2 (40); HYPOKALEMIA, patients (%) [2]: 1 (20); HYPOPHOSPHATEMIA, patients (%) [2]: 0; HYPOXIA, patients (%) [2]: 0; LUNG INFECTION, patients (%) [2]: 0; LYMPHOCYTE COUNT DECREASED, patients (%) [2]: 1 (20); MUCOSITIS ORAL, patients (%) [2]: 2 (40); NAUSEA, patients (%) [2]: 3 (60); NEUTROPHIL COUNT DECREASED, patients (%) [2]: 0; PLATELET COUNT DECREASED, patients (%) [2]: 0; PLEURAL EFFUSION, patients (%) [2]: 1 (20); PRURITUS, patients (%) [2]: 4 (80); RASH MACULO-PAPULAR, patients (%) [2]: 1 (20); RASH, patients (%) [2]: 2 (40); RESPIRATORY FAILURE, patients (%) [2]: 0; VOMITING, patients (%) [2]: 0; WHITE BLOOD CELL DECREASED, patients (%) [2]: 0; ELECTROCARDIOGRAM QT CORRECTED INTERVAL PROLONGED, patients (%) (Cohort A: 200mg, cytarabine, Daunorubicin (n=5), grade 1&2, listed as pacritinib): Four; ACTIVATED PARTIAL THROMBOPLASTIN TIME PROLONGED, patients (%) [3]: 0; ANEMIA, patients (%) [3]: 3 (60); ANOREXIA, patients (%) [3]: 0; CONSTIPATION, patients (%) [3]: 0; DIARRHEA, patients (%) [3]: 0; DYSPNEA, patients (%) [3]: 0; EDEMA LIMBS, patients (%) [3]: 0; ELECTROCARDIOGRAM QT CORRECTED INTERVAL PROLONGED, patients (%) [3]: 0; FATIGUE, patients (%) [3]: 0; FEBRILE NEUTROPENIA, patients (%) [3]: 3 (60); HYPERGLYCEMIA, patients (%) [3]: 0; HYPERTENSION, patients (%) [3]: 1 (20); HYPOALBUMINEMIA, patients (%) [3]: 0; HYPOKALEMIA, patients (%) [3]: 0; HYPOPHOSPHATEMIA, patients (%) [3]: 1 (20); HYPOXIA, patients (%) [3]: 2 (40); LUNG INFECTION, patients (%) [3]: 1 (20); LYMPHOCYTE COUNT DECREASED, patients (%) [3]: 2 (40); MUCOSITIS ORAL, patients (%) [3]: 0; NAUSEA, patients (%) [3]: 0; NEUTROPHIL COUNT DECREASED, patients (%) [3]: 2 (40); PLATELET COUNT DECREASED, patients (%) [3]: 5 (100); PLEURAL EFFUSION, patients (%) [3]: 0; PRURITUS, patients (%) [3]: 0; RASH MACULO-PAPULAR, patients (%) [3]: 1 (20); RASH, patients (%) [3]: 0; RESPIRATORY FAILURE, patients (%) [3]: 2 (40); VOMITING, patients (%) [3]: 0; WHITE BLOOD CELL DECREASED, patients (%) [3]: 4 (80); ACTIVATED PARTIAL THROMBOPLASTIN TIME PROLONGED, patients (%) [4]: 0; ANEMIA, patients (%) [4]: 2 (100); ANOREXIA, patients (%) [4]: 0; CONSTIPATION, patients (%) [4]: 1 (50); DIARRHEA, patients (%) [4]: 0; DYSPNEA, patients (%) [4]: 1 (50); EDEMA LIMBS, patients (%) [4]: 0; ELECTROCARDIOGRAM QT CORRECTED INTERVAL PROLONGED, patients (%) [4]: 0; FATIGUE, patients (%) [4]: 0; FEBRILE NEUTROPENIA, patients (%) [4]: 0; HYPERGLYCEMIA, patients (%) [4]: 1 (50); HYPERTENSION, patients (%) [4]: 1 (50); HYPOALBUMINEMIA, patients (%) [4]: 0; HYPOKALEMIA, patients (%) [4]: 1 (50); HYPOPHOSPHATEMIA, patients (%) [4]: 0; HYPOXIA, patients (%) [4]: 0; LUNG INFECTION, patients (%) [4]: 0; LYMPHOCYTE COUNT DECREASED, patients (%) [4]: 1 (50); MUCOSITIS ORAL, patients (%) [4]: 0; NAUSEA, patients (%) [4]: 1 (50); NEUTROPHIL COUNT DECREASED, patients (%) [4]: 1 (50); PLATELET COUNT DECREASED, patients (%) [4]: 1 (50); PLEURAL EFFUSION, patients (%) [4]: 0; PRURITUS, patients (%) [4]: 0; RASH MACULO-PAPULAR, patients (%) [4]: 0; RASH, patients (%) [4]: 0; RESPIRATORY FAILURE, patients (%) [4]: 0; VOMITING, patients (%) [4]: 1 (50); WHITE BLOOD CELL DECREASED, patients (%) [4]: 1 (50); ACTIVATED PARTIAL THROMBOPLASTIN TIME PROLONGED, patients (%) [5]: 0; ANEMIA, patients (%) [5]: 1 (50); ANOREXIA, patients (%) [5]: 0; CONSTIPATION, patients (%) [5]: 1 (50); DIARRHEA, patients (%) [5]: 0; DYSPNEA, patients (%) [5]: 1 (50); EDEMA LIMBS, patients (%) [5]: 0; ELECTROCARDIOGRAM QT CORRECTED INTERVAL PROLONGED, patients (%) [5]: 0; FATIGUE, patients (%) [5]: 0; FEBRILE NEUTROPENIA, patients (%) [5]: 0; HYPERGLYCEMIA, patients (%) [5]: 1 (50); HYPERTENSION, patients (%) [5]: 1 (50); HYPOALBUMINEMIA, patients (%) [5]: 0; HYPOKALEMIA, patients (%) [5]: 0; HYPOPHOSPHATEMIA, patients (%) [5]: 0; HYPOXIA, patients (%) [5]: 0; LUNG INFECTION, patients (%) [5]: 0; LYMPHOCYTE COUNT DECREASED, patients (%) [5]: 0; MUCOSITIS ORAL, patients (%) [5]: 0; NAUSEA, patients (%) [5]: 0; NEUTROPHIL COUNT DECREASED, patients (%) [5]: 0; PLATELET COUNT DECREASED, patients (%) [5]: 0; PLEURAL EFFUSION, patients (%) [5]: 0; PRURITUS, patients (%) [5]: 0; RASH MACULO-PAPULAR, patients (%) [5]: 0; RASH, patients (%) [5]: 0; RESPIRATORY FAILURE, patients (%) [5]: 0; VOMITING, patients (%) [5]: 1 (50); WHITE BLOOD CELL DECREASED, patients (%) [5]: 0; ACTIVATED PARTIAL THROMBOPLASTIN TIME PROLONGED, patients (%) [6]: 0; ANEMIA, patients (%) [6]: 1 (50); ANOREXIA, patients (%) [6]: 0; CONSTIPATION, patients (%) [6]: 0; DIARRHEA, patients (%) [6]: 0; DYSPNEA, patients (%) [6]: 0; EDEMA LIMBS, patients (%) [6]: 0; ELECTROCARDIOGRAM QT CORRECTED INTERVAL PROLONGED, patients (%) [6]: 0; FATIGUE, patients (%) [6]: 0; FEBRILE NEUTROPENIA, patients (%) [6]: 0; HYPERGLYCEMIA, patients (%) [6]: 0
